Laboratory results: patent publication US10945989B2, “Perinatal treatment with a flavonoid agonist of the TrkB receptor for BDNF rescues neurogenesis and behavior in the Ts65Dn mouse model of DS” (ALMA MATER STUDIORUM—Universita' di Bologna, priority 2017, dated 2021)

Key:
[1] = Body and brain weight, neonatal treatment (P15, P45); format: in vivo, mouse
Method: (§1) Euploid and Ts65Dn mice received a daily subcutaneous injection (at 9-10 am) of 7,8-DHF (5.0 mg/kg in vehicle: PBS with 1% DMSO) or vehicle from postnatal day 3 (P3) to postnatal day 15. This timing was chosen because it corresponds to that previously used to test the effects of fluoxetine and other pharmacotherapies in the neonate Ts65Dn mouse (Bianchi et al., 2010b; Giacomini et al., 2015; Stagni et al., 2016). Mice that received 7,8-DHF will be called “treated mice” (treated euploid mice: n=25; treated Ts65Dn mice: n=15). Mice that received the vehicle will be called “untreated mice” (untreated euploid mice: n=35; untreated Ts65Dn mice: n=21). […] The brains were excised and cut along the midline. The left hemisphere of a group of mice was fixed by immersion in PFA 4% and frozen, and the left hemisphere of another group of mice was used for Golgi staining. The right hemispheres of all mice was kept at −80° C. and used for western blotting.
Euploid and Ts65Dn mice received a daily subcutaneous injection (at 9-10 am) of 7,8-DHF (5.0 mg/kg in vehicle) or vehicle from postnatal day 3 (P3) to postnatal day P45-P50. […] These mice will be called here P45 mice. Mice were behaviorally tested in the 6 days that preceded the day of sacrifice (FIG. 2B).
The body weight of mice of all groups was recorded prior to sacrifice and the brain weight was recorded immediately after brain removal. The number of animals used for each experimental procedure is specified in the figure legends and in Table 3.

[2] = tested on: neural precursor cells of the DG; experiment: BrdU-positive cells in the dentate gyrus of P15 mice; format: in vivo, mouse; conditions: for number of BrdU-positive cells in the DG: Ts65Dn pups
Method: In a pilot study we tested the effects of different doses of 7,8-DHF on the proliferation rate in the SGZ of Ts65Dn mice. Mice received a daily subcutaneous injection of 7,8-DHF (2.5, 5.0, or 10.0 mg/kg in PBS with 1-2% DMSO) from postnatal day 3 (P3) to P15. […] Therefore, this study (Experiment 1 and Experiment 2) was carried out using a 5.0 mg/kg dose.
as §1
One out of six free-floating sections (n=15-18 sections) from the hippocampal formation of P15 mice was incubated with rat anti-BrdU antibody.
BrdU-positive cells in the DG of P15 mice were detected using a fluorescence microscope (Eclipse; objective: ×40, 0.75 NA; final magnification: ×400). Quantification of BrdU-labeled nuclei was conducted in every 6th section using a modified unbiased stereology protocol that has previously been reported as successfully quantifying BrdU labeling (Malberg et al., 2000; Kempermann and Gage, 2002; Tozuka et al., 2005). All BrdU labeled cells located in the granule cell and subgranular layers were counted in their entire z axis (1 μm steps) in each section. To avoid oversampling errors, nuclei intersecting the uppermost focal plane were excluded. The total number of BrdU labeled cells per animal was determined and multiplied by six to obtain the total estimated number of cells per DG.

[3] = tested on: ERK1/ERK2; experiment: Western blot of hippocampal homogenates: ERK1/2 and p-ERK1/2; format: in vivo, mouse; conditions: for ERK2/ERK1 ratio, mean / p-ERK2/p-ERK1 ratio, mean: hippocampal region
Method: as §1
In homogenates of the hippocampal formation of P15 mice, total proteins were obtained as previously described (Trazzi et al., 2011) and the levels of the following proteins were evaluated: BDNF, TrkB full length (TrkB-FL), phosphorylated TrkB (p-TrkB), the truncated form 1 of the TrkB receptor (TrkB-T1), phosphorylated ERK1 (p-ERK1), phosphorylated ERK2 (p-ERK2), ERK1, ERK2, synaptophysin (SYN), GAPDH and α-Tubulin using the antibodies reported in Table 1. Densitometric analysis of digitized images with ChemiDoc XRS+ was performed with Image Lab software (Bio-Rad Laboratories, Hercules, Calif., USA) and intensity for each band was normalized to the intensity of the corresponding GAPDH or α-Tubulin band.

[4] = tested on: synaptophysin (SYN); experiment: Western blot of hippocampal homogenates: synaptophysin; format: in vivo, mouse
Method: (§2) Euploid and Ts65Dn mice received a daily subcutaneous injection (at 9-10 am) of 7,8-DHF (5.0 mg/kg in vehicle: PBS with 1% DMSO) or vehicle from postnatal day 3 (P3) to postnatal day 15. This timing was chosen because it corresponds to that previously used to test the effects of fluoxetine and other pharmacotherapies in the neonate Ts65Dn mouse (Bianchi et al., 2010b; Giacomini et al., 2015; Stagni et al., 2016). Mice that received 7,8-DHF will be called “treated mice” (treated euploid mice: n=25; treated Ts65Dn mice: n=15). Mice that received the vehicle will be called “untreated mice” (untreated euploid mice: n=35; untreated Ts65Dn mice: n=21). […] The brains were excised and cut along the midline. The left hemisphere of a group of mice was fixed by immersion in PFA 4% and frozen, and the left hemisphere of another group of mice was used for Golgi staining. […]
(§3) In homogenates of the hippocampal formation of P15 mice, total proteins were obtained as previously described (Trazzi et al., 2011) and the levels of the following proteins were evaluated: BDNF, TrkB full length (TrkB-FL), phosphorylated TrkB (p-TrkB), the truncated form 1 of the TrkB receptor (TrkB-T1), phosphorylated ERK1 (p-ERK1), phosphorylated ERK2 (p-ERK2), ERK1, ERK2, synaptophysin (SYN), GAPDH and α-Tubulin using the antibodies reported in Table 1. […]

[5] = tested on: BDNF; experiment: Western blot of hippocampal homogenates: BDNF; format: in vivo, mouse
Method: as §2, §3

[6] = Liu et al., 2010 and 2013; cited from earlier work
[7] = P15 Ts65Dn mice, 5.0 mg/kg s.c. daily P3-P15
[8] = P45 Ts65Dn mice, 5.0 mg/kg s.c. daily P3-P45
[9] = P15 euploid mice, vs untreated counterparts

Question: For O=c1cc(-c2ccccc2)oc2c(O)c(O)ccc12 [7,8-DHF, 7,8-dihydroxyflavone], which body weight [1, 7] is on record?
Answer: did not further reduce the body weight

Question: And the brain weight [1, 7]?
Answer: did not cause a further brain weight reduction

Question: What about the brain weight ([1]; P15 euploid mice, 5.0 mg/kg s.c. daily P3-P15, vs untreated) of the same compound?
Answer: slight but significant brain weight reduction

Question: And the body weight [1, 8]?
Answer: did not further reduce their body weight

Question: And the “brain weight (reduction vs untreated euploid mice)” value [1, 8]?
Answer: this difference disappeared

Question: What about the body weight ([1]; P45 euploid mice, 5.0 mg/kg s.c. daily P3-P45, vs untreated) of the same compound?
Answer: body weight reduction

Question: What about the “number of BrdU-positive cells in the DG” value ([2]; 2.5 mg/kg P3-P15, vs vehicle) of the same compound?
Answer: no effect

Question: And the “number of BrdU-positive cells in the DG” value ([2]; 5.0 mg/kg P3-P15, vs vehicle)?
Answer: increased the number of BrdU-positive cells

Question: What about the “number of BrdU-positive cells in the DG” value ([2]; 10.0 mg/kg P3-P15, vs vehicle) of the same compound?
Answer: increased the number of BrdU-positive cells

Question: What about the “number of NPCs (BrdU-positive cells) in the DG” value ([2]; euploid mice, 5.0 mg/kg P3-P15) of the same compound?
Answer: no effect on the number of NPCs

Question: What about the “optimum dose for proliferation rate in the SGZ” value ([2]; pilot study, Ts65Dn mice, 2.5, 5.0 or 10.0 mg/kg s.c. P3-P15) of the same compound?
Answer: 5.0 mg/kg

Question: What about the “total number of BrdU-positive (proliferating) cells per DG” value ([2]; treated Ts65Dn mice, 5.0 mg/kg P3-P15, mean±SE, untreated Ts65Dn 7166±337, untreated euploid 10,281±111) of the same compound?
Answer: 8963±449

Question: What about the p-ERK1 levels ([3]; P15 Ts65Dn mice, vs untreated Ts65Dn and untreated euploid mice) of the same compound?
Answer: increase in p-ERK1 levels

Question: And the ERK1 levels ([3]; P15 Ts65Dn mice, vs untreated Ts65Dn mice)?
Answer: increase in ERK1 levels

Question: And the ERK2 levels ([3]; P15 Ts65Dn mice, vs untreated counterparts and untreated euploid mice)?
Answer: increase in ERK2 levels

Question: What about the p-ERK2 levels ([3]; P15 Ts65Dn mice, vs untreated euploid mice) of the same compound?
Answer: increase in p-ERK2 levels

Question: What about the ERK2 levels [3, 9] of the same compound?
Answer: increase in ERK2 levels

Question: And the “stoichiometry of ERK1/2 and p-ERK1/2” value ([3]; Ts65Dn mice)?
Answer: did not affect their stoichiometry

Question: And the “ERK2/ERK1 ratio, mean” value ([3]; Ts65Dn mice, 7,8-DHF P3-P15)?
Answer: 3.93

Question: What about the “p-ERK2/p-ERK1 ratio, mean” value ([3]; Ts65Dn mice, 7,8-DHF P3-P15) of the same compound?
Answer: 2.01

Question: What about the “ERK2/ERK1 ratio, mean” value ([3]; euploid mice, 7,8-DHF P3-P15) of the same compound?
Answer: 4.18

Question: And the “p-ERK2/p-ERK1 ratio, mean” value ([3]; euploid mice, 7,8-DHF P3-P15)?
Answer: 2.32

Question: And the “SYN levels in the hippocampus” value ([4]; P15 Ts65Dn mice, became similar to untreated euploid mice)?
Answer: increased SYN levels

Question: And the “SYN levels in the hippocampus” value [4, 9]?
Answer: increase in SYN levels

Question: And the “BDNF levels in the hippocampus” value ([5]; P15 Ts65Dn mice, statistically significant)?
Answer: reduction in BDNF levels

Question: And the “BDNF levels in the hippocampus” value ([5]; P15 euploid mice, not statistically significant)?
Answer: reduction in BDNF levels

Question: And the blood-brain barrier penetration [6]?
Answer: penetrates the blood-brain barrier
